Laboratory results published in patent US7893074B2, “2, 4-pyrimidinediamines useful in the treatment of neoplastic diseases, inflammatory and immune system disorders” (Novartis AG, priority 2003, dated 2011).

Columns and labels:
[1] = molecular target: FAK (Mus musculus, UniProt P34152); assay: Phos IC50 (phosphorylation); type: cell-based
[2] = tested on: Mouse mammary carcinoma 4T1 cells; assay: Anchorage-independent tumor cell growth assay; type: cell-based; conditions: Mus musculus, 4T1
Procedure: Cells are cultured for 2 h and inhibitors are added at various concentrations in a final concentration of 0.1% DMSO. After 48 h, cell growth is assayed with the cell counting kit-8 (Wako Pure Chemical), which uses a water soluble tetrazolium salt WST8. Twenty μL of the reagent is added into each well and cells are further cultured for 2 h. The optical density is measured at 450 nm.

[3] = molecular target: Focal Adhesion Kinase (FAK) (Homo sapiens, UniProt Q05397); assay: FAK assay system (Focal Adhesion Kinase inhibition); type: biochemical; conditions: read-out: FAK IC50
Chain of Focal Adhesion Kinase (FAK) (Q05397 384-706): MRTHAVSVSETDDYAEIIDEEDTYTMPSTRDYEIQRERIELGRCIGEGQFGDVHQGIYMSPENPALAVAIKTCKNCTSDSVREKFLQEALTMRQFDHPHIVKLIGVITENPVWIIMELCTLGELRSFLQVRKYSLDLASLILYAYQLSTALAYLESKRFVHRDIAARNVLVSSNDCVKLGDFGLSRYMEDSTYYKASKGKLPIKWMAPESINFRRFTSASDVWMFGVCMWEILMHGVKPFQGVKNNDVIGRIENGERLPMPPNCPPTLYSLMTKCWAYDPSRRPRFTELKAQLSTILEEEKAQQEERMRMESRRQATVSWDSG

Chain of FAK (P34152 2-1052): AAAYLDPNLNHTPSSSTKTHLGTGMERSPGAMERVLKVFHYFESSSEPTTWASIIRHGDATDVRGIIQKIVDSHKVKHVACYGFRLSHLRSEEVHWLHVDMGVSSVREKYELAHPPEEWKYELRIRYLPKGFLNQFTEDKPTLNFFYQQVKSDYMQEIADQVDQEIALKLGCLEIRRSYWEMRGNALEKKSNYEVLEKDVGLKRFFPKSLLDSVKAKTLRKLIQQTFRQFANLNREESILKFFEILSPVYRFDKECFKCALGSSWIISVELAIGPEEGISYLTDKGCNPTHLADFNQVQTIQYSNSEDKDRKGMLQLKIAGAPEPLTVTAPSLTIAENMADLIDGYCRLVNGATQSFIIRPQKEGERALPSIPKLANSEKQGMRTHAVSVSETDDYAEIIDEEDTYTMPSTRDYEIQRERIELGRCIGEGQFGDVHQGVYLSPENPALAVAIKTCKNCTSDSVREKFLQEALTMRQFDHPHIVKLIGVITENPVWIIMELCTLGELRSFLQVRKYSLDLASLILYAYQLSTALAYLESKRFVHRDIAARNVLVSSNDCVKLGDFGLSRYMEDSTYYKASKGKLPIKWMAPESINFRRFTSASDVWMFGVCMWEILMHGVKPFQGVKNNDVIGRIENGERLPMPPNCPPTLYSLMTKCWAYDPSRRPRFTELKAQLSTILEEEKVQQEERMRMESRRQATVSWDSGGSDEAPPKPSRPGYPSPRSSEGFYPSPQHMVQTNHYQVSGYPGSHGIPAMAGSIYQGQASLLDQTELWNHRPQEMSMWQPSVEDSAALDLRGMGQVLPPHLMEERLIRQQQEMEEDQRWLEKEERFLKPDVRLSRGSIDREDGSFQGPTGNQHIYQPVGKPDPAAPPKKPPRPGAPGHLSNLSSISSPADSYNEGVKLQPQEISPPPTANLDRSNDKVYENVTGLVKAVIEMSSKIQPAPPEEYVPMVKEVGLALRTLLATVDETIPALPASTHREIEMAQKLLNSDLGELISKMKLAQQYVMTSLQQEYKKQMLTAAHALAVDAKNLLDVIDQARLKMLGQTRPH

Row | IC50 [1] [nM] | IC50 [2] [nM] | IC50 [3] [nM] | SMILES
1 | 950 | > 10000 | 52 | CCCCc1ccccc1Nc1ncc(Br)c(Nc2ccccc2S(=O)(=O)NC)n1 [Example 3-10]
2 | 400 | 5000 | 54 | CNS(=O)(=O)c1ccccc1Nc1nc(Nc2cccc(OC)c2OC)ncc1Br [Example 3-14]
3 | 1100 | 3000 | 48 | CNS(=O)(=O)c1ccccc1Nc1nc(Nc2cc(C)cc(C)c2C)ncc1Br [Example 3-16]
4 | 1500 | 9000 | 130 | CNS(=O)(=O)c1ccccc1Nc1nc(Nc2cc(C(C)C)ccc2C)ncc1Br [Example 3-18]
5 | 220 | 300 | 16 | CNS(=O)(=O)c1ccccc1Nc1nc(Nc2cc(N3CCOCC3)ccc2C)ncc1Br [Example 3-20]
6 | 900 | 2000 | 120 | CNS(=O)(=O)c1ccccc1Nc1nc(Nc2cc(C(=O)N3CCOCC3)ccc2C)ncc1Br [Example 3-22]
7 | 390 | 500 | 38 | CNS(=O)(=O)c1ccccc1Nc1nc(Nc2cc(C(=O)NC3CCCCC3)ccc2C)ncc1Br [Example 3-23]
8 | 3500 | 5000 | 64 | CNS(=O)(=O)c1ccccc1Nc1nc(Nc2cc(C(=O)N3CCNCC3)ccc2C)ncc1Br [Example 3-24]
9 | 790 | 2000 | 50 | CNS(=O)(=O)c1ccccc1Nc1nc(Nc2cc(N3CCCCC3)ccc2C)ncc1Br [Example 3-26]
10 | 710 | 700 | 43 | CNS(=O)(=O)c1ccccc1Nc1nc(Nc2cc(-c3cccc(OC)c3)ccc2C)ncc1Br [Example 3-28]
11 | 600 | > 10000 | 89 | CCOc1ccc(-c2ccccc2)cc1Nc1ncc(Br)c(Nc2ccccc2S(=O)(=O)NC)n1 [Example 3-29]
12 | 600 | 3000 | 69 | CCOc1ccc(-c2ccc(OC)cc2)cc1Nc1ncc(Br)c(Nc2ccccc2S(=O)(=O)NC)n1 [Example 3-30]
13 | 1100 | 5000 | 13 | CNS(=O)(=O)c1ccccc1Nc1nc(Nc2cccc3c2CCCC3)ncc1Br [Example 3-31]
14 | 1100 | 2600 | 39 | CNS(=O)(=O)c1ccccc1Nc1nc(Nc2ccc(F)cc2Cl)ncc1Br [Example 3-37]
15 | 1700 | 3800 | 64 | CNS(=O)(=O)c1ccccc1Nc1nc(Nc2cc(F)ccc2Cl)ncc1Br [Example 3-38]
16 | > 10000 | 900 | 9 | CNS(=O)(=O)c1ccccc1Nc1nc(Nc2ccc(N3CCC(C#N)CC3)cc2OC)ncc1Br [Example 3-40]
17 | > 10000 | 430 | 22 | CNS(=O)(=O)c1ccccc1Nc1nc(Nc2ccc(N3CCSCC3)cc2OC)ncc1Br [Example 3-41]
18 | 350 | 300 | 29 | CNS(=O)(=O)c1ccccc1Nc1nc(Nc2ccc(N(CCOC)CCOC)cc2OC)ncc1Br [Example 3-42]
19 | 20 | 20 | 0.9 | CNS(=O)(=O)c1ccccc1Nc1nc(Nc2cccc3c2ccn3CCCN2CCOCC2)ncc1Br [Example 3-45]
20 | 100 | 60 | 1 | CNS(=O)(=O)c1ccccc1Nc1nc(Nc2ccc(N3CCNCC3)cc2OC)ncc1Br [Example 3-47]
21 | 420 | 2000 | 29 | CNS(=O)(=O)c1ccccc1Nc1nc(Nc2cc(Cl)ccc2OC)ncc1Br [Example 3-52]
22 | > 10000 | 3000 | 34 | CCOc1ccc(OCC)c(Nc2ncc(Br)c(Nc3ccccc3S(=O)(=O)NC)n2)c1 [Example 3-55]
23 | 610 | 3000 | 28 | CCOc1ccc(N2CCOCC2)cc1Nc1ncc(Br)c(Nc2ccccc2S(=O)(=O)NC)n1 [Example 3-57]
24 | 1200 | > 10000 | 95 | CNS(=O)(=O)c1ccccc1Nc1nc(Nc2cc(OC)ccc2OCCOC)ncc1Br [Example 3-59]
25 | 930 | 2000 | 90 | CNS(=O)(=O)c1ccccc1Nc1nc(Nc2cc(OC)ccc2OCCO)ncc1Br [Example 3-60]
26 | > 10000 | > 10000 | 63 | CNS(=O)(=O)c1ccccc1Nc1nc(Nc2cc(OC)ccc2OC(C)C)ncc1Br [Example 3-62]
27 | > 10000 | > 10000 | 27 | CCCOc1ccc(OC)cc1Nc1ncc(Br)c(Nc2ccccc2S(=O)(=O)NC)n1 [Example 3-63]
28 | 380 | 390 | 6 | CNS(=O)(=O)c1ccccc1Nc1nc(Nc2cc(-c3ccccn3)ccc2OC)ncc1Br [Example 3-67]

Row | IC50 [1] [nM] | IC50 [2] [nM] | IC50 [3] [nM] | SMILES
29 | 20 | 130 | 3.5 | CNS(=O)(=O)c1ccccc1Nc1nc(Nc2ccc(OCCCN3CCOCC3)cc2OC)ncc1Br [Example 3-70]
30 | 50 | 80 | 11 | CNS(=O)(=O)c1ccccc1Nc1nc(Nc2ccc(OCCCN3CCOCC3)cc2C)ncc1Br [Example 3-71]
31 | 110 | 60 | 2.1 | CNS(=O)(=O)c1ccccc1Nc1nc(Nc2ccc(OCCCN3CCN(C)CC3)cc2OC)ncc1Br [Example 3-72]
32 | 100 | 150 | 15 | CNS(=O)(=O)c1ccccc1Nc1nc(Nc2ccc(OC3CCN(C(C)=O)CC3)cc2OC)ncc1Br [Example 3-74]
33 | 500 | 1300 | 72 | CNS(=O)(=O)c1ccccc1Nc1nc(Nc2cc(OC3CCN(C(C)=O)CC3)ccc2OC)ncc1Br [Example 3-75]
34 | > 10000 | 3000 | 65 | CNS(=O)(=O)c1ccccc1Nc1nc(Nc2cc(F)ccc2F)ncc1Br [Example 3-77]
35 | > 10000 | 220 | 10 | CNS(=O)(=O)c1ccccc1Nc1nc(Nc2cc(OC3CCNCC3)ccc2OC)ncc1Br [Example 3-78]
36 | 1300 | 120 | 5 | CNS(=O)(=O)c1ccccc1Nc1nc(Nc2ccc(OC3CCNCC3)cc2OC)ncc1Br [Example 3-79]
37 | 1000 | 80 | 10 | CNS(=O)(=O)c1ccccc1Nc1nc(Nc2cc(N3CCN(C)CC3)ccc2OC)ncc1Br [Example 3-84]
38 | 1000 | 290 | 5.2 | CNC(=O)c1ccccc1Nc1nc(Nc2ccc(OCCN3CCOCC3)cc2OC)ncc1Cl [Example 7-4]
39 | 900 | 180 | 4.1 | CNC(=O)c1ccccc1Nc1nc(Nc2ccc(N3CCN(C(C)=O)CC3)cc2OC)ncc1Cl [Example 7-7]
40 | 800 | 1000 | 8.7 | CNC(=O)c1ccccc1Nc1nc(Nc2ccc(N3CCC(O)CC3)cc2OC)ncc1Cl [Example 7-8]
41 | 1000 | 850 | 8.2 | CCOCCOC1CCN(c2ccc(Nc3ncc(Cl)c(Nc4ccccc4C(=O)NC)n3)c(OC)c2)CC1 [Example 7-9]
42 | 1000 | 980 | 6.6 | CNC(=O)c1ccccc1Nc1nc(Nc2ccc(N3CCC(OCCOC)CC3)cc2OC)ncc1Cl [Example 7-10]
43 | 800 | 1220 | 5.5 | CNC(=O)c1ccccc1Nc1nc(Nc2ccc(N3CCC(C(N)=O)CC3)cc2OC)ncc1Cl [Example 7-13]
44 | 200 | 420 | 6.4 | CNC(=O)c1ccccc1Nc1nc(Nc2ccc(N3CCN4CCOC[C@@H]4C3)cc2OC)ncc1Cl [Example 7-16]
45 | > 10000 | 110 | 2.5 | CNC(=O)c1ccccc1Nc1nc(Nc2ccc(OCC3CCN(C)CC3)cc2OC)ncc1Cl [Example 7-20]
46 | > 10000 | 460 | 3.3 | CNC(=O)c1ccccc1Nc1nc(Nc2ccc(OCCN3CCN(C)CC3)cc2OC)ncc1Cl [Example 7-21]
47 | 500 | 220 | 21 | CNC(=O)c1ccccc1Nc1nc(Nc2cccc3[nH]ccc23)ncc1Cl [Example 7-27]
48 | 1000 | 150 | 34 | CNC(=O)c1ccccc1Nc1nc(Nc2cccc3c2ccn3C)ncc1Cl [Example 7-28]
49 | 2000 | 480 | 57 | CNC(=O)c1ccccc1Nc1nc(Nc2ccc(N3CCOCC3)c3c2ccn3C)ncc1Cl [Example 7-29]
50 | 600 | 330 | 6.6 | CNC(=O)c1ccccc1Nc1nc(Nc2cc(N3CCOCC3)ccc2OC)ncc1Br [Example 8-1]
51 | 500 | 990 | 2.4 | CNC(=O)c1ccccc1Nc1nc(Nc2ccc(N3CCOCC3)cc2OC)ncc1Br [Example 8-2]
52 | > 10000 | 1100 | 8 | CNC(=O)c1ccccc1Nc1nc(Nc2ccc(F)cc2OC)ncc1Br [Example 8-4]
53 | 500 | 810 | 15 | CCNC(=O)c1ccccc1Nc1nc(Nc2ccc(N3CCN(C)CC3)cc2OC)ncc1Cl [Example 9-2]
54 | 200 | 730 | 13 | CCNC(=O)c1ccccc1Nc1nc(Nc2ccc(N3CCC(N4CCCC4)CC3)cc2OC)ncc1Cl [Example 9-4]
55 | > 10000 | 260 | 17 | CCNC(=O)c1ccccc1Nc1nc(Nc2cc(N3CCC(N4CCCCC4)CC3)ccc2OC)ncc1Cl [Example 9-7]
